Experimental data reported in patent publication US20100273876A1, “ANTIBACTERIAL FORMULATION COMPRISING A DIALKYL SULPHOSUCCINATE AND A CARBANILIDE ANTIBACTERIAL AGENT” (priority 2007, published 2010).

Experiments:
Assay in all cases: (S)DDA disc diffusion
P. granulosum PRP-043 = assay type: cell-based, Propionibacterium granulosum
Protocol: (§1) The propionibacteria were cultured and maintained on Wilkins-Chalgren Anaerobe Medium (agar and broth) at pH 6.0; all cultures were incubated anaerobically at 37° C. for 72 hours.
(§2) A sterile paper disc was impregnated with a sample of the test compound in a suitable solvent and 30 minutes allowed for the solvents to evaporate (where possible). The disc was then placed on an agar plate onto which the test micro-organism had been inoculated. The plate was then incubated under the conditions described above, following which it was examined visually for signs of microbial growth. If the test compound had antimicrobial activity, a circular zone of no growth would be obtained around the disc. The diameter of this zone of “inhibition” was measured using a ProtoCOL™ automated zone sizer (Synbiosis, Cambridge, UK). In general, a greater diameter and/or area of the zone of inhibition indicates a greater antimicrobial activity in the relevant test compound, although other factors such as test compound mobility through the agar gel may also influence the result.
(§3) Two test a compounds A and B were placed on a single paper disc and the above described DDA procedure repeated. An increase in diameter of the zone of inhibition, compared to the greater of the zone diameters for the two compounds individually, was taken to indicate potential antimicrobial synergy. In practical terms, an increase of greater than 5 mm could be treated as significant.
(§4) Both the DDA and the SDDA test may be carried out using an agar gel supplemented with lipid and/or salt to simulate some of the major components present in human skin and to assess whether these substances might reduce the antimicrobial activity observed for the test compound. Performance under these conditions can provide a more reliable indication of activity on topical application. The supplements used in Examples 1, 11, 12 and 13 below were lipid (either Tween™ 80 at 1% v/v (Example 1) or triolein at 1% v/v (Examples 11, 12 and 13) and sodium chloride (100 mM).

P. granulosum NCTC 11865 = assay type: cell-based, Propionibacterium granulosum
Protocol: as §1, §2, §3, §4

P. granulosum PRP-005 = assay type: cell-based, Propionibacterium granulosum
Protocol: as §1, §2, §3, §4

P. granulosum PRP-055 = assay type: cell-based, Propionibacterium granulosum
Protocol: as §1, §2, §3, §4

P. granulosum PRP-044 = assay type: cell-based, Propionibacterium granulosum
Protocol: as §1, §2, §3, §4

P. granulosum PRP-019 = assay type: cell-based, Propionibacterium granulosum
Protocol: as §1, §2, §3, §4

P. granulosum PRP-006 = assay type: cell-based, Propionibacterium granulosum
Protocol: as §1, §2, §3, §4

P. granulosum PRP-021 = assay type: cell-based, Propionibacterium granulosum
Protocol: as §1, §2, §3, §4

[1] = system: C. mucifaciens ATCC 700355; assay type: cell-based, Corynebacterium mucifaciens; conditions: for DDA: 200 μg per disc
Protocol: (§5) Several Corynebacterium test species were also used in this study, namely C. mucifaciens ATCC 700355, C. striatum NCTC 764, C. xerosis NCTC 11861 and C. jeikeium NCTC 11915. These Gram-positive pathogens are closely related to organisms (aerobic diphtheroids of the genus Corynebacterium) that cause body odour. C. mucifaciens and C. striatum were cultured and maintained on Mueller-Hinton Medium (agar and broth) and were incubated aerobically at 37° C. for 24 hours. C. xerosis and C. jeikeium were cultured and maintained on Mueller-Hinton Medium containing 5% (v/v) lysed horse blood (agar and broth) and were incubated aerobically at 37° C. for 72 hours. A sterile paper disc was impregnated with a sample of the test compound in a suitable solvent and 30 minutes allowed for the solvents to evaporate (where possible). The disc was then placed on an agar plate onto which the test micro-organism had been inoculated. The plate was then incubated under the conditions described above, following which it was examined visually for signs of microbial growth. If the test compound had antimicrobial activity, a circular zone of no growth would be obtained around the disc. The diameter of this zone of “inhibition” was measured using a ProtoCOL™ automated zone sizer (Synbiosis, Cambridge, UK). In general, a greater diameter and/or area of the zone of inhibition indicates a greater antimicrobial activity in the relevant test compound, although other factors such as test compound mobility through the agar gel may also influence the result. Two test a compounds A and B were placed on a single paper disc and the above described DDA procedure repeated. An increase in diameter of the zone of inhibition, compared to the greater of the zone diameters for the two compounds individually, was taken to indicate potential antimicrobial synergy. In practical terms, an increase of greater than 5 mm could be treated as significant. The activities of DOSS and TCC were determined, using (S)DDAs, against the test organisms C. mucifaciens ATCC 700355, C. striatum NCTC 764, C. xerosis NCTC 11861 and C. jeikeium NCTC 11915. 200 μg of the DOSS and/or the TCC were loaded onto each disc. All the experiments were conducted in triplicate.

C. jeikeium NCTC 11915 = assay type: cell-based, Corynebacterium jeikeium; conditions: for DDA: 200 μg per disc
Protocol: as §5

[2] = system: Bact. fragilis ATCC 25285; assay type: cell-based, Bacteroides fragilis; conditions: 200 μg per disc
Protocol: as §2
Two test a compounds A and B were placed on a single paper disc and the above described DDA procedure repeated. […]
The activities of DOSS and TCC were determined, using (S)DDAs, against a panel of further test micro-organisms, namely B. cereus ATCC 11778, Bact. fragilis ATCC 25285, Clost. difficile […] and E. faecalis ATCC 29212. […]

[3] = P. granulosum PRP-043 (MLS), 200 μg TCC or 50 μg DOSS per disc
[4] = P. granulosum NCTC 11865 (resistance None), 200 μg TCC or 50 μg DOSS per disc
[5] = P. granulosum PRP-005 (MLSK), 200 μg TCC or 50 μg DOSS per disc
[6] = P. granulosum PRP-055 (resistance None), 200 μg TCC or 50 μg DOSS per disc
[7] = P. granulosum PRP-044 (MLS), 200 μg TCC or 50 μg DOSS per disc
[8] = P. granulosum PRP-019 (MLSK), 200 μg TCC or 50 μg DOSS per disc
[9] = P. granulosum PRP-006 (MLS), 200 μg TCC or 50 μg DOSS per disc
[10] = P. granulosum PRP-021 (MLS), 200 μg TCC or 50 μg DOSS per disc
[11] = 200 μg DOSS + 200 μg TCC on one disc

Compound: dioctyl sodium sulphosuccinate [DOSS]
- DDA (P. granulosum PRP-043; [3]): 8.94 mm
- DDA (P. granulosum PRP-043; P. granulosum PRP-043, 200 μg per disc): 40.16 mm
- DDA + salt (P. granulosum PRP-043; P. granulosum PRP-043, 200 μg per disc, sodium chloride 100 mM): 35.80 mm
- DDA + lipid (P. granulosum PRP-043; P. granulosum PRP-043, 200 μg per disc, triolein 1% v/v): 35.18 mm
- DDA (P. granulosum NCTC 11865; [4]): 14.70 mm
- DDA (P. granulosum NCTC 11865; P. granulosum NCTC 11865, 200 μg per disc): 39.84 mm
- DDA + salt (P. granulosum NCTC 11865; P. granulosum NCTC 11865, 200 μg per disc, sodium chloride 100 mM): 37.98 mm
- DDA + lipid (P. granulosum NCTC 11865; P. granulosum NCTC 11865, 200 μg per disc, triolein 1% v/v): 38.60 mm
- DDA (P. granulosum PRP-005; [5]): 26.31 mm
- DDA (P. granulosum PRP-005; P. granulosum PRP-005, 200 μg per disc): 42.96 mm
- DDA + salt (P. granulosum PRP-005; P. granulosum PRP-005, 200 μg per disc, sodium chloride 100 mM): 46.38 mm
- DDA + lipid (P. granulosum PRP-005; P. granulosum PRP-005, 200 μg per disc, triolein 1% v/v): 40.47 mm
- DDA (P. granulosum PRP-055; [6]): 10.07 mm
- DDA (P. granulosum PRP-055; P. granulosum PRP-055, 200 μg per disc): 40.16 mm
- DDA + salt (P. granulosum PRP-055; P. granulosum PRP-055, 200 μg per disc, sodium chloride 100 mM): 38.29 mm
- DDA + lipid (P. granulosum PRP-055; P. granulosum PRP-055, 200 μg per disc, triolein 1% v/v): 36.42 mm
- DDA (P. granulosum PRP-044; [7]): 0.00 mm
- DDA (P. granulosum PRP-044; P. granulosum PRP-044, 200 μg per disc): 38.29 mm
- DDA + salt (P. granulosum PRP-044; P. granulosum PRP-044, 200 μg per disc, sodium chloride 100 mM): 37.67 mm
- DDA + lipid (P. granulosum PRP-044; P. granulosum PRP-044, 200 μg per disc, triolein 1% v/v): 35.49 mm
- DDA (P. granulosum PRP-019; [8]): 19.94 mm
- DDA (P. granulosum PRP-019; P. granulosum PRP-019, 200 μg per disc): 41.71 mm
- DDA + salt (P. granulosum PRP-019; P. granulosum PRP-019, 200 μg per disc, sodium chloride 100 mM): 42.02 mm
- DDA + lipid (P. granulosum PRP-019; P. granulosum PRP-019, 200 μg per disc, triolein 1% v/v): 42.65 mm
- DDA (P. granulosum PRP-006; [9]): 19.01 mm
- DDA (P. granulosum PRP-006; P. granulosum PRP-006, 200 μg per disc): 40.47 mm
- DDA + salt (P. granulosum PRP-006; P. granulosum PRP-006, 200 μg per disc, sodium chloride 100 mM): 41.09 mm
- DDA + lipid (P. granulosum PRP-006; P. granulosum PRP-006, 200 μg per disc, triolein 1% v/v): 40.16 mm
- DDA (P. granulosum PRP-021; [10]): 0.00 mm
- DDA (P. granulosum PRP-021; P. granulosum PRP-021, 200 μg per disc): 39.53 mm
- DDA + salt (P. granulosum PRP-021; P. granulosum PRP-021, 200 μg per disc, sodium chloride 100 mM): 38.60 mm
- DDA + lipid (P. granulosum PRP-021; P. granulosum PRP-021, 200 μg per disc, triolein 1% v/v): 42.02 mm
- SDDA area increase [1]: 165.45%
- SDDA increase [1]: 8.13 mm
- SDDA with TCC [1, 11]: 21.05 mm
- DDA [1]: 12.92 mm
- SDDA area increase (C. jeikeium NCTC 11915): ∞
- SDDA increase (C. jeikeium NCTC 11915): 13.81 mm
- SDDA with TCC (C. jeikeium NCTC 11915; [11]): 13.81 mm
- DDA (C. jeikeium NCTC 11915): 0.0 mm
- DDA [2]: 19.74 mm

Compound: O=C(Nc1ccc(Cl)cc1)Nc1ccc(Cl)c(Cl)c1 [TCC, N-(4-chlorophenyl)-N′-(3,4-dichlorophenyl) urea]
- DDA (P. granulosum PRP-043; [3]): 8.84 mm
- DDA (P. granulosum NCTC 11865; [4]): 17.78 mm
- DDA (P. granulosum PRP-005; [5]): 12.13 mm
- DDA (P. granulosum PRP-055; [6]): 17.16 mm
- DDA (P. granulosum PRP-044; [7]): 0.00 mm
- DDA (P. granulosum PRP-019; [8]): 0.00 mm
- DDA (P. granulosum PRP-006; [9]): 10.17 mm
- DDA (P. granulosum PRP-021; [10]): 0.00 mm
- DDA [1]: 9.59 mm
- DDA (C. jeikeium NCTC 11915): 0.0 mm
- DDA [2]: 14.71 mm
